Measurements published in PubChem BioAssay AID1626 (SRMLSC, 2009).

Test system: M. tuberculosis H37Rv growth inhibition
Experiment: M. tuberculosis H37Rv growth inhibitors, H37Rv strain (AID 1626)
Settings: for IC90: measured here: IC90 against H37Rv; for CC50: measured here: Vero cell cytotoxicity

For `Cc1sc(N)nc1-c1ccccc1`, the IC90 was greater than 100 µM.

`NC1CCN(c2c(F)cc3c(=O)c(C(=O)O)cn(C4CC4)c3c2Cl)C1` (stereo not given) showed an IC50 of less than 0.391 µM and an IC90 of less than 0.391 µM.

`CCOC(=O)c1ccc(-n2c(CN(CC)CC)nc3ccc([N+](=O)[O-])cc3c2=O)cc1` gave an IC50 of 54.1 µM and an IC90 greater than 100 µM.

For `O=C(COC(=O)C1COc2ccccc2O1)NC(=O)Nc1ccc2c(c1)OCCO2` (stereo not given), the IC90 was greater than 100 µM.

With `CCOc1ccc(-c2nnc(N)o2)cc1` the IC50 was 57.8 µM and the IC90 was greater than 100 µM.

For `Cc1ccc(-c2noc(-c3cc4ccccc4oc3=O)n2)cc1`, the IC50 was 1.5 µM and the IC90 was greater than 100 µM.

`Cc1ccc(CNCC(O)(c2ccccc2)c2ccc(Cl)cc2)cc1` (stereo not given) showed an IC50 of 8.17 µM, an IC90 of 10.9 µM and a CC50 greater than 40 µM.

In the case of `C#CCOCCOCCOCCNc1nc(N2CCN(C(=O)[C@H](Cc3ccc(O)cc3)n3cc([C@@H](N)CC(C)C)nn3)CC2)nc(N2CCN(C(=O)[C@H](Cc3cc4ccccc4[nH]3)n3cc([C@@H](N)CC(C)C)nn3)CC2)n1`, the IC50 is reported as 11.7 µM and the IC90 is reported as 16.7 µM.

`Cc1cc(=O)[nH]c(-n2nc(C)c(Oc3ccccc3O)c2C)n1` gave an IC50 of 7.72 µM, an IC90 greater than 100 µM and a CC50 greater than 40 µM.

In the case of `O=C1C=C(c2cccs2)C[C@H](c2ccccc2)[C@H]1n1nnc([N+](=O)[O-])n1`, the IC50 is reported as 3.8 µM, the IC90 is reported as 7.5 µM and the CC50 is reported as less than 0.078 µM.

Work on `O=C(CSc1ccc([N+](=O)[O-])cn1)Nc1ccc2c(c1)OCCO2` yielded an IC50 of 51.3 µM and an IC90 greater than 100 µM.

With `CCOC(=O)c1ccc(N/C=C/C(=O)C(C)(C)C)cc1` the IC50 was 4.61 µM and the IC90 was greater than 100 µM.

Work on `Cc1cccc(NC(=O)c2nc[nH]c2C(=O)N[C@@H](C)C(=O)OCc2ccccc2)c1` yielded an IC50 of 59.9 µM and an IC90 greater than 100 µM.

`O=C1C=CC(O)(c2cc(=O)c3c(O)cc(O)cc3o2)C=C1` gave an IC50 of 3.87 µM, an IC90 of 6.68 µM and a CC50 of 6.81 µM.

`CCNc1nc(NCC)nc(-n2nc(C)cc2C)n1` showed an IC50 of 5.04 µM and an IC90 of 18.4 µM.

`COc1ccc(-c2nn(-c3ccccc3)cc2/C=N/N=C(N)N)cc1OC` showed an IC50 of 13.3 µM, an IC90 of 22.6 µM and a CC50 of 32.3 µM.

In the case of `CCOC(=O)Cc1csc(NC(=O)c2c(O)c3ccccc3n(CCC(C)C)c2=O)n1`, the IC50 is reported as less than 0.195 µM, the IC90 is reported as 0.224 µM and the CC50 is reported as 8.48 µM.

`Cn1c(-c2ccccc2)cc2c3no[n+]([O-])c3ccc21` was tested, and the IC50 was less than 0.195 µM, the IC90 was 0.445 µM and the CC50 was 2.6 µM.

With `CC1Cc2ccccc2N1C(=O)COC(=O)c1ccc(Br)o1` (stereo not given) the IC50 was 16 µM and the IC90 was greater than 100 µM.

Compound `CN1CCN(C2=Cc3ccc(Cl)cc3Sc3ccc(F)cc32)CC1` has an IC50 of 10.9 µM, an IC90 of 12.3 µM and a CC50 of 33.9 µM.

`CCOc1ccc(N2CCc3c(C)nc(SC)nc32)cc1` was tested, and the IC50 was less than 0.195 µM, the IC90 was 40.3 µM and the CC50 was 27.1 µM.

For `CCN(CC)CCOC(=O)c1ccc(N/C=C(/C#N)c2nc(-c3ccc(OC)c(OC)c3)cs2)cc1`, the IC50 was 4.16 µM, the IC90 was 22.1 µM and the CC50 was greater than 40 µM.

With `Cc1ccc(NC(=O)c2sc3nc(C)nc(N4CCN(c5ccccn5)CC4)c3c2C)c(C)c1` the IC50 was 10.7 µM and the IC90 was greater than 100 µM.

`Nc1[nH]n2c(=O)c3c(nc2c1N=Nc1ccc(Cl)cc1)CCCC3` gave an IC50 of 10.7 µM, an IC90 of 21.5 µM and a CC50 of 25.4 µM.

Compound `O=C(/C=C/c1cn(CC(O)CN2CCCCCC2)c2ccccc12)c1cccs1` (stereo not given) has an IC50 of 0.993 µM, an IC90 of 1.95 µM and a CC50 of 20 µM.

`CSc1ccccc1NC(=O)c1cc(C2CC2)on1` gave an IC50 of 23.6 µM and an IC90 of 26.7 µM.

`N#C/C(=C\c1ccccn1)c1nc2ccccc2s1` gave an IC50 of 14.9 µM, an IC90 greater than 100 µM and a CC50 greater than 40 µM.

For `CCOc1ccc(Nc2nc(N)nc(CN3CCN(c4ccccc4F)CC3)n2)cc1`, the IC50 was 7.83 µM and the IC90 was 16.8 µM.

In the case of `Cc1nc(SCC(=O)Nc2cc(C)on2)c2c3c(sc2n1)CCCC3`, the IC50 is reported as less than 0.195 µM, the IC90 is reported as 13.8 µM and the CC50 is reported as 21 µM.

For `COc1ccc(C(C(=O)NC2CCCCC2)N(C(=O)c2sc(C)nc2C)c2ccc(C(C)=O)cc2)cc1` (stereo not given), the IC50 was 65.5 µM and the IC90 was greater than 100 µM.

`CCOC(=O)c1c(NC(=O)COc2ccccc2)sc2c1CC(C)(C)NC2(C)C` showed an IC50 of 20.1 µM, an IC90 of 26.8 µM and a CC50 greater than 40 µM.

Work on `COC(=O)CSc1ncnc2c1sc1nc3c(cc12)COC(C)(C)C3` yielded an IC50 of 3.1 µM and an IC90 of 10 µM.

`Cc1ccc(N2C(=O)C(F)(F)C2c2ccccc2)cc1` (stereo not given) was tested, and the IC50 was 4.38 µM and the IC90 was 19.7 µM.

Work on `CC(=O)c1sc(NC(=O)c2cc(-c3ccccc3)nn2-c2ccccc2)nc1C` yielded an IC50 of 27.7 µM, an IC90 greater than 100 µM and a CC50 greater than 40 µM.

`CN(C)c1ccc(C(=O)Nc2nnc(-c3ccc(Cl)cc3)o2)cc1` showed an IC50 of 0.895 µM, an IC90 greater than 100 µM and a CC50 greater than 40 µM.

Compound `Cc1[nH]n(C2=NCCS2)c(=O)c1N=Nc1cccc(C(F)(F)F)c1` has an IC50 of 0.387 µM, an IC90 of 1.47 µM and a CC50 of 9.46 µM.

Work on `O=C(COC(=O)c1ccccc1Br)NCCC1=CCCCC1` yielded an IC50 of 17.6 µM and an IC90 greater than 100 µM.

`Nc1ncnc(Oc2cccc3cccnc23)c1[N+](=O)[O-]` showed an IC50 of 6.19 µM, an IC90 of 6.94 µM and a CC50 of 37.1 µM.

`CCCOC(=O)c1ccc(NC(=O)C(=O)NCCN(CC)CC)cc1` was tested, and the IC50 was 53.1 µM and the IC90 was greater than 100 µM.

Compound `CC(=O)c1ccc(NC(=O)c2ccc(CNc3c(N4CCOCC4)c(=O)c3=O)cc2)cc1` has an IC50 of 5.81 µM and an IC90 of 6.61 µM.

`CC(C)COC(=O)c1ccc2c(c1O)C(=O)c1ccccc1C2=O` showed an IC50 of 2.51 µM, an IC90 of 4.11 µM and a CC50 of 27.8 µM.
